Read-outs that look alike come from different tables or passages of the source.
Columns and labels:
pERK1/2 in KYSE520 cells = test: p-Erk cellular assay in KYSE520 (Mesoscale); type: cell-based; details: read-out: pERK1/2 in Cell KYSE520 IC50
Procedure: p-Erk Cellular Assay in KYSE520: The effect of SHP2 inhibitors on pERK level was assessed using phospho-specific antibody using Mesoscale quantification platform. For measuring change in pERK levels using mesoscale, 30,000 cells of KYSE520 cells were plated in 96-well tissue culture treated plate in 175 μl volume of media. After an overnight incubation at 37° C., various SHP2 inhibitors were added in different concentration to each well maintaining duplicate wells across plates and incubated with compounds for 2 h at 37° C. followed by a wash with ice cold PBS buffer. The cells were then lysed in lysis buffer and processed and analyzed for p-ERK/ERK as per manufacturer's instructions (Mesoscale discovery, cat No. […]-3).

[1] = target: Full length SHP2 protein (Recombinant Human SHP-2) (Homo sapiens (Human), UniProt Q06124); test: SHP2 biochemical assay (DiFMUP substrate, activating peptide IRSI_2pY); details: activating peptide IRSI_2pY 140 nM, DiFMUP, 60 min
Procedure: The inhibition of SHP2 by compounds of the invention was monitored using the surrogate substrate DiFMUP after protein activation by a peptide bearing two appropriately spaced phosphotyrosine. […] The generation of the DiFMU product by activated SHP2 was monitored through Fluorescence measurement with a PerkinElmer Envision reader. The inhibitor dose response curves were analyzed with Genedata Screener.

[2] = read-out: SHP-2 biochemical assay IC50
[3] = SHP-2 biochemical assay IC50 (μM)

Full length SHP2 protein (Recombinant Human SHP-2), sequence (Q06124 2-593): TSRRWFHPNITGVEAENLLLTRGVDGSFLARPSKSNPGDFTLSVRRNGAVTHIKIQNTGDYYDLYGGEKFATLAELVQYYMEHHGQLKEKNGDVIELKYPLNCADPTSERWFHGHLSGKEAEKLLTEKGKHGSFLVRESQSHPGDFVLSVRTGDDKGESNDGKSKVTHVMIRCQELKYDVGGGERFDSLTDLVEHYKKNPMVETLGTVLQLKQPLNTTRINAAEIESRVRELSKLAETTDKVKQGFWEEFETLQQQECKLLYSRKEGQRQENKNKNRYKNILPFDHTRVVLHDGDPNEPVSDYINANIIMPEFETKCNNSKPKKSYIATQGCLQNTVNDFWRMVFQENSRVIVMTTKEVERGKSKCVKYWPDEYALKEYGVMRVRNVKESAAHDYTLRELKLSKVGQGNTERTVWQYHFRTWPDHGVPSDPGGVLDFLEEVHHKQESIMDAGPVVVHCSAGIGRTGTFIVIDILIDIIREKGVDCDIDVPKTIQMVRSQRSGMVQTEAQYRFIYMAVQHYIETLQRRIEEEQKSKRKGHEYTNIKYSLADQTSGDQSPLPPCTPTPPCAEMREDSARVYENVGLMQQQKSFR

Row | IC50 [1, 2] [µM] | SMILES | IC50 [1, 3] [µM] | also measured
1 | – | Cc1nc(N2CCC(C)(N)CC2)cc(=O)n1-c1cccc(Cl)c1Cl (single isomer, unassigned) [Compound 2b, (3M)-6-(4-amino-4-methylpiperidin-1-yl)-3-(2,3-dichlorophenyl)-2-methyl-3,4-dihydropyrimidin-4-one] | – | IC50 (pERK1/2 in KYSE520 cells; Homo sapiens, KYSE-520, 2 h): 4.25 µM
2 | – | Cc1c(N2CCC3(CC2)c2ncccc2C[C@H]3N)nc(C)n(-c2cccc(Cl)c2Cl)c1=O [Compound 75, (3M)-6-[(6R)-6-amino-5,6-dihydrospiro[cyclopenta[b]pyridine-7,4′-piperidin]-1′-yl]-3-(2,3-dichlorophenyl)-2,5-dimethyl-3,4-dihydropyrimidin-4-one] | – | IC50 (pERK1/2 in KYSE520 cells; 2 h): 0.824 µM
3 | 0.76 | C[C@@H]1OCC2(CCN(c3cc(=O)n(-c4cccc(Cl)c4Cl)c(N)n3)CC2)[C@@H]1N [Compound 5, 2-amino-6-[(3S,4S)-4-amino-3-methyl-2-oxa-8-azaspiro[4.5]decan-8-yl]-3-(2,3-dichlorophenyl)-3,4-dihydropyrimidin-4-one] | – | IC50 (pERK1/2 in KYSE520 cells; Homo sapiens, KYSE-520, 2 h): 14.5 µM
4 | 0.15 | Cc1c(N2CCC3(CC2)CO[C@@H](C)[C@H]3N)nc(C)n(-c2cccc(F)c2Cl)c1=O [Compound 96, 6-((3S,4S)-4-Amino-3-methyl-2-oxa-8-aza-spiro[4.5]dec-8-yl)-3-(2-chloro-3-fluoro-phenyl)-2,5-dimethyl-3H-pyrimidin-4-one] | – | IC50 (pERK1/2 in KYSE520 cells; Homo sapiens, KYSE-520, 2 h): 2 µM
5 | – | Cc1nc(N2CCC(C)(N)CC2)cc(=O)n1-c1cccc(Cl)c1Cl [Compound 2, 6-(4-amino-4-methylpiperidin-1-yl)-3-(2,3-dichlorophenyl)-2-methyl-3,4-dihydropyrimidin-4-one] | – | IC50 (pERK1/2 in KYSE520 cells; Homo sapiens, KYSE-520, 2 h): 5.57 µM
6 | 0.005 | Cc1c(N2CCC3(CC2)Cc2ccccc2[C@H]3N)nc(C)n(-c2cccc(Br)c2Cl)c1=O [Compound 104, 6-[(1S)-1-amino-1,3-dihydrospiro[indene-2,4′-piperidin]-1′-yl]-3-(3-bromo-2-chlorophenyl)-2,5-dimethyl-3,4-dihydropyrimidin-4-one] | – | IC50 (pERK1/2 in KYSE520 cells; Homo sapiens, KYSE-520, 2 h): 0.026 µM
7 | 0.004 | Cc1c(N2CCC3(CC2)Cc2ccccc2[C@H]3N)nc(C)n(-c2cccc(F)c2Cl)c1=O [Compound 112, 6-[(1S)-1-amino-1,3-dihydrospiro[indene-2,4′-piperidin]-1′-yl]-3-(2-chloro-3-fluorophenyl)-2,5-dimethyl-3,4-dihydropyrimidin-4-one] | – | IC50 (pERK1/2 in KYSE520 cells; Homo sapiens, KYSE-520, 2 h): 0.014 µM
8 | 0.016 | Nc1nc(N2CCC3(CC2)Cc2ccccc2[C@H]3N)cc(=O)n1-c1cccc(Cl)c1Cl [Compound 118, 2-amino-6-[(3S)-3-amino-1,3-dihydrospiro[indene-2,4′-piperidin]-1′-yl]-3-(2,3-dichlorophenyl)-3,4-dihydropyrimidin-4-one] | – | IC50 (pERK1/2 in KYSE520 cells; Homo sapiens, KYSE-520, 2 h): 0.051 µM
9 | 0.56 | Cc1c(N2CCC3(CCC3N)CC2)nc(C)n(-c2cccc(Cl)c2Cl)c1=O (centres unmarked) [Compound 82, 6-1-amino-7-azaspiro[3.5]nonan-7-yl-3-(2,3-dichlorophenyl)-2,5-dimethyl-3,4-dihydropyrimidin-4-one] | – | IC50 (pERK1/2 in KYSE520 cells; Homo sapiens, KYSE-520, 2 h): 6.63 µM
10 | – | [2H]C([2H])([2H])c1c(N2CCC3(CC2)CO[C@@H](C)[C@H]3N)nc(C)n(-c2cccc(Cl)c2Cl)c1=O (single isomer, unassigned) [Compound 63b] | 0.015 | IC50 (pERK1/2 in KYSE520 cells; 2 h): 0.177 µM
11 | – | [2H]C([2H])([2H])c1c(N2CCC3(CC2)CO[C@@H](C)[C@H]3N)nc(C)n(-c2cccc(Cl)c2Cl)c1=O [Compound 63, 6-[(3S,4S)-4-amino-3-methyl-2-oxa-8-azaspiro[4.5]decan-8-yl]-3-(2,3-dichlorophenyl)-5-(^2H3)methyl-2-methyl-3,4-dihydropyrimidin-4-one] | 0.039 | IC50 (pERK1/2 in KYSE520 cells; 2 h): 0.467 µM
12 | 0.37 | Cc1c(N2CCC(C)(CN)CC2)nc(C)n(-c2cccc(Cl)c2Cl)c1=O [Compound 18, 6-[4-(aminomethyl)-4-methylpiperidin-1-yl]-3-(2,3-dichlorophenyl)-2,5-dimethyl-3,4-dihydropyrimidin-4-one] | – | IC50 (pERK1/2 in KYSE520 cells; Homo sapiens, KYSE-520, 2 h): 1.32 µM
13 | – | Cc1c(N2CCC3(CC2)Cc2ccccc2[C@H]3N)nc(C)n(-c2cccc(Cl)c2Cl)c1=O (atropisomer, axis not shown) [Compound 74b, (3P)-6-[(1S)-1-amino-1,3-dihydrospiro[indene-2,4′-piperidin]-1′-yl]-3-(2,3-dichlorophenyl)-2,5-dimethyl-3,4-dihydropyrimidin-4-one] | 0.026 | IC50 (pERK1/2 in KYSE520 cells; 2 h): 0.624 µM
14 | – | Cc1c(N2CCC3(CC2)Cc2ccccc2[C@@H]3N)nc(C)n(-c2cccc(Cl)c2Cl)c1=O (atropisomer, axis not shown) [Compound 74d, (3P)-6-[(1R)-1-amino-1,3-dihydrospiro[indene-2,4′-piperidin]-1′-yl]-3-(2,3-dichlorophenyl)-2,5-dimethyl-3,4-dihydropyrimidin-4-one] | > 10 | –
15 | 1.2 | Cc1c(N2CCC3(CC2)CO[C@@H](C)[C@H]3N)nc(C)n(-c2ccc3ccccc3c2)c1=O [Compound 45, 6-((3S,4S)-4-Amino-3-methyl-2-oxa-8-aza-spiro[4.5]dec-8-yl)-2,5-dimethyl-3-naphthalen-2-yl-3H-pyrimidin-4-one] | – | –
16 | 18 | Cc1c(N2CCC(C)(CN)CC2)nc(C)n(-c2ccc3ccccc3c2)c1=O [Compound 44, 6-(4-Aminomethyl-4-rnethyl-piperidin-1-yl)-2,5-dimethyl-3-naphthalen-2-yl-3H-pyrimidin-4-one] | – | –
17 | – | Cc1c(N2CCC3(CC2)Oc2ncccc2[C@H]3N)nc(C)n(-c2cccc(Cl)c2Cl)c1=O [Compound 79a, (3M)-6-[(3R)-3-amino-3H-spiro[furo[2,3-b]pyridine-2,4′-piperidin]-1′-yl]-3-(2,3-dichlorophenyl)-2,5-dimethylpyrimidin-4-one] | 0.3 | –
18 | 2.5 | Cc1nc(N2CCC(NC[C@@H](O)CO)CC2)cc(=O)n1-c1cccc(Cl)c1Cl [Compound 41, 3-(2,3-dichlorophenyl)-6-(4-{[(2R)-2,3-dihydroxypropyl]-amino}piperidin-1-yl)-2-methyl-3,4-dihydropyrimidin-4-one] | – | –
19 | 7.3 | Cc1ccc(Cl)c(Cl)c1-n1c(C)nc(N2CCC3(CC2)CO[C@@H](C)[C@H]3N)c(C)c1=O [Compound 102, 6-((3S,4S)-4-Amino-3-methyl-2-oxa-8-aza-spiro[4.5]dec-8-yl)-3-(2,3-dichloro-6-methyl-phenyl)-2,5-dimethyl-3H-pyrimidin-4-one] | – | –
20 | – | [2H]C([2H])([2H])c1c(N2CCC(C)(N)CC2)nc(C)n(-c2cccc(Cl)c2Cl)c1=O [Compound 94, 6-(4-amino-4-methylpiperidin-1-yl)-3-(2,3-dichlorophenyl)-5-(D3)methyl-2-methyl-3,4-dihydropyrimidin-4-one] | 1.4 | –
21 | – | [2H]C([2H])([2H])c1c(N2CCC3(CC2)CO[C@@H](C)[C@H]3N)nc(C)n(-c2cccc(Cl)c2Cl)c1=O (single isomer, unassigned) [Compound 63a] | 6 | –
22 | > 10 | Cc1c(N2CCC(C)(N)CC2)nc(C)n(-c2ccc3nccnc3c2)c1=O [Compound 47, 6-(4-Amino-4-methyl-piperidin-1-yl)-2,5-dimethyl-3-quinoxalin-6-yl-3H-pyrimidin-4-one] | – | –
23 | – | COc1c(N2CCC3(CC2)CO[C@@H](C)[C@H]3N)nc(C)n(-c2cccc(Cl)c2Cl)c1=O (single isomer, unassigned) [Compound 73b] | 0.91 | –
24 | 5.7 | Cc1nc(N2CCC(C)(CN)CC2)cc(=O)n1-c1c(F)ccc(Cl)c1Cl (single isomer, unassigned) [Compound 33b, (3M)-6-[4-(aminomethyl)-4-methylpiperidin-1-yl]-3-(2,3-dichloro-6-fluorophenyl)-2-methyl-3,4-dihydropyrimidin-4-one] | – | –
25 | 7.9 | Cc1c(N2CC(CN)C(C)(C)C2)nc(C)n(-c2cccc(Cl)c2Cl)c1=O (centres unmarked) [Compound 87, 6-[4-(aminomethyl)-3,3-dimethylpyrrolidin-1-yl]-3-(2,3-dichlorophenyl)-2,5-dimeihyl-3,4-dihydropyrimidin-4-one] | – | –
26 | 4 | Cc1nc(N2C[C@H]3COCC[C@@]3(CN)C2)cc(=O)n1-c1cccc(Cl)c1Cl (racemic) [Compound 19, (+/−)-6-[(3aS,7aR)-7a-(aminomethyl)-octahydropyrano[3,4-c]pyrrol-2-yl]-3-(2,3-dichlorophenyl)-2-methyl-3,4-dihydropyrimidin-4-one] | – | –
27 | – | Cc1c(N2C[C@H]3COC[C@@]3(CN)C2)nc(C)n(-c2cccc(Cl)c2Cl)c1=O (racemic) [Compound 34, (+/−)-6-[(3aS,6aS)-3a-(aminomethyl)-hexahydro-1H-furo[3,4-c]pyrrol-5-yl]-3-(2,3-dichlorophenyl)-2,5-dimethyl-3,4-dihydropyrimidin-4-one] | 1.7 | –
28 | – | Cc1nc(N2C[C@@H]3CCC[C@]3(CN)C2)c(C(F)(F)F)c(=O)n1-c1cccc(Cl)c1Cl (racemic) [Compound 25, (+/−)-6-[(3aS,6aR)-3a-(aminomethyl)-octahydrocyclopenta[c]pyrrol-2-yl]-3-(2,3-dichlorophenyl)-2-methyl-5-(trifluoromethyl)-3,4-dihydropyrimidin-4-one] | 14 | –

Row | SMILES | IC50 [1, 2] [µM] | IC50 [1, 3] [µM] | also measured
29 | Cc1c(N2CCC3(CC2)Oc2cnccc2C3N)nc(C)n(-c2cccc(Cl)c2Cl)c1=O (single isomer, unassigned) [Compound 80c] | 0.005 | – | –
30 | Cc1c(N2CCC3(CCC[C@H]3N)CC2)nc(N)n(-c2cccc(Cl)c2Cl)c1=O (single isomer, unassigned) [Compound 78b] | > 10 | – | –
31 | Cc1c(N2CCC3(CC2)CO[C@@H](C)[C@H]3N)nc(C)n(-c2cccc(Cl)c2Cl)c1=O (single isomer, unassigned) [Compound 23a] | 3.4 | – | –

Reference: patent US11001561B2, “Pyrimidinone derivatives as SHP2 antagonists” (MERCK PATENT GMBH, priority 2019, dated 2021)
